Structures can show the parent of a compound that is named as a salt.
Tests used:
[1] = tested on: astrocytes; assay: Extracellular lactate quantification; type: cell-based, mouse; design: Score_LACTATE / Score Lact.: scale not given here; conditions: Appendix II; for EC50: Mus musculus, Astrocyte, lactate secretion
Experimental: Primary cultures of cerebrocortical astrocytes were obtained from 1-2-day-old OF1 mouse pups (Charles River Laboratories). Briefly, cortices were isolated and minced in small pieces under a dissecting microscope. The cells were incubated for 30 min at 37° C. in a solution containing 20 U/ml of papain enzyme (Worthington Biochemical), L-cysteine 1 mM (Sigma), and 10 kU/ml DNase I (Worthington Biochemical) for an enzymatic dissociation. Papain activity was stopped by the addition of fetal calf serum (FCS) to the solution, and a single-cell suspension was then obtained by mechanical dissociation, which consisted in cells trituration in a DMEM (D7777, Sigma-Aldrich) medium (supplemented with 44 mm NaHCO3, and 10 ml/L antibiotic/antimycotic solution) containing 10% FCS. The cells were seeded at an average density of 6×10^4 cells/cm^2 in poly-D-lysine-coated 96, 12 or 6-well culture plates, depending on their use, and incubated at 37° C. in a humidified atmosphere containing 5% CO2/95% air. Culture medium was renewed twice per week. Cells were stimulated and harvested between DIV14 and DIV17, when confluence and cell growth were optimal.
Secretion of L-lactate was determined in the extracellular medium of 96-well plated astrocytes after 90 min stimulation (at 37° C., in 5% CO2/95% air conditions) with the drug of interest. The stimulation medium was composed of D5030 medium (completed with D-glucose 5 mM and 44 mM sodium bicarbonate) for 90 min in concentrations ranging from 0 to 100 μM.
Briefly, 200 μl of a Glycine (Sigma)-Semicarbazide (Acros) 0.2M pH 10 buffer containing 3 mM NAD (Roche) and LDH 14 U/ml (Roche) was added to each well of a 96-well plate containing 30 μl aliquots complemented with 20 μl fresh complete D5030 medium. Samples were incubated at 37° C. for 1 h. After samples cooled down at room temperature, the fluorescence intensity (340 nm excitation/450 nm emission) that represents the amount of NADH produced was measured, and lactate concentration values were determined from a standard curve of L-lactate.
(§1) Statistical analysis consisted in ANOVA followed by Fisher LSD post-hoc test for pair-wise comparisons.
Levels of lactate secreted by astrocytes were measured in the extracellular medium at 90 min after stimulation with hits (molecules) from the CDC54K library.

[2] = tested on: astrocytes; assay: Intracellular glycogen quantification; type: cell-based, mouse; conditions: Prestwick hits; 10 uM, 3 h
Experimental: For glycogen dosage, a protein dosage was first performed in order to assess whether harvested astrocytes from primary cell cultures yielded enough and equivalent amounts of proteins comparing each replicate, and to ensure that the obtained differences in glycogen quantities were due to drug action and not to inner protein quantities.
Astrocytes used for these dosages were previously grown in 6-well plates for 17 days and stimulated with Vehicle (DMSO) or drug of interest (1 μM to 100 μM) for 180 min, at 37° C. 5% CO2/95% air in D5030 complete medium. Medium was removed and replaced with 600 μl of 30 mM Tris HCl, and stored at −20° C.
Proteins were dosed using the micro BCA Protein Assay kit (Thermo Scientific), as described in the manufacturer's instructions. Briefly, thawed cells were sonicated and 5 μl aliquots were placed in a transparent 96-well plate, to which we added 25 μl 30 mM Tris HCl, 70 μl H2O and 100 μl of a BCA mix (made as described in manufacturer's guidelines). After a 120 min-incubation at 37° C., absorbance was measured with Safire 2 spectrophotometer at a wavelength of 562 nm, and protein quantities were determined from a standard curve of Bovine Serum Albumin (BSA).
Glycogen was quantified using a 250 μl-aliquot of the same stimulated, thawed, and sonicated cells. After an incubation period of 30 min at 90° C. and 400 rpm, 28 μl of an acetic acid/sodium acetate (both from Sigma) 0.1M pH 4.6 buffer was added to each aliquot, which was then separated in two. Each split aliquot received whether 5 μl of amyloglucosidase (Roche) or 5 μl H2O, and all cell solutions were incubated for 120 min in a shaking 37° C.-waterbath. After a centrifugation at 16'000 G for 5 min, 20 μl of supernatant were placed 96-well plate, to which 150 μl of a mix containing 0.67 mM ATP (Roche), 0.67 mM NADP (Roche), 1.8% hexokinase/glucose-6-phosphate dehydrogenase (Roche) and 0.1M Tris Buffer-HCl/3.3 mM magnesium (Fluka)/pH 8.1 buffer was added. Fluorescence was measured with Safire 2 spectrophotometer (340 nm excitation/440 nm emission). Glycogen concentration was obtained by subtracting glucose value of samples with amyloglucosidase to samples without amyloglucosidase, and were expressed relative to the amount of proteins previously determined.
Levels of intracellular glycogen in astrocytes were measured at 3 h after stimulation with 20 hits from the Prestwick library (10 μM each), as shown in FIG. 2. n=6-10; Ctrl pos. is glutamate (0.5 mM). Statistical analysis consisted in ANOVA followed by Fisher LSD post-hoc test for pair-wise comparisons.
as §1

Structure (SMILES)	Score Lact. [1]	EC50 [1]	Glycogen (statistical significance of glycogen degradation) [2]
CCNc1cc(C)nc(Nc2ccc(NC(=O)c3cccs3)cc2)n1 [G869-0071]	0.63		
CCN(CC)S(=O)(=O)c1ccc(S(=O)(=O)Nc2ccc(C)cc2C)cc1 [T5453923]	0.66	5.36 µM	
FC(F)(F)c1cccc(CNc2ncnc3[nH]ncc23)c1 [F5285-0069]	0.36		
O=c1[nH]nc(NCCOc2ccc(Br)cc2)n1C1CC1 [T533260]	0.53	6.84 µM	
CS(=O)(=O)NC1CCN(C(=O)c2ccc(F)cc2)C1 (stereo not drawn) [Z603-8037]	0.32		
COc1cc(C)c(NC(=O)Cc2ccc(Cl)c(Cl)c2)cc1OC [T5783794]	0.44		
CCOc1ccc(C2(O)C(C)[N+]3=C(CCC3)N2c2ccc(OC)cc2)cc1.[Br-] (stereo not drawn) [T0500-6629]	0.61		
COc1ccc(C(C)NC(=O)c2cc(=O)c3ccccc3o2)cc1F (stereo not drawn) [T5710343]	0.67		
CCc1ccc(S(=O)(=O)Nc2cc3c(cc2C)n(C)c(=O)n3C)cc1 [G433-0293]	0.74		
Clc1ccc2c(c1)CCc1cccnc1C2=C1CCNCC1 [Desloratadine]			* (*p<0.05)
CCCCOc1cc(C(=O)NCCN(CC)CC)c2ccccc2n1 [Dibucaine]			* (*p<0.05)
Cc1c(C)c2c(c(C)c1O)CCC(C)(COc1ccc(CC3SC(=O)NC3=O)cc1)O2 (stereo not drawn) [Troglitazone]			*** (***p<0.001)
COc1ccc(NS(=O)(=O)c2cccc(NC(=O)c3ccccc3)c2)cc1 [T5274959]	0.68		
CC(C)[N+](C)(CCOC(=O)C1c2ccccc2Oc2ccccc21)C(C)C [Propantheline bromide]			**** (****p<0.0001)
COc1cccc(C(CNc2nc(C(F)(F)F)nc3ccccc23)N(C)C)c1 (stereo not drawn) [T5800607]	063		
CCn1c(=O)c(C)nc2cc(C(=O)N(Cc3ccc(F)cc3)C3CC3)ccc21 [T5586091]	0.45		
N#Cc1ccc(S(=O)(=O)Nc2ccccc2C(=O)NCc2ccccc2)cc1 [T5673322]	0.63		
COc1ccc(NS(=O)(=O)c2ccc(N3CCCCS3(=O)=O)cc2)cc1 [G508-0015]	0.67		
CC(COc1ccccc1)NC(C)C(O)c1ccc(O)cc1 (stereo not drawn) [Isoxsuprine hydrochloride]			** (**p<0.01)
Cc1ccc(-c2c[nH]c(NC(=O)c3ccncc3)n2)cc1[N+](=O)O [T5694329]	0.47	1.59 µM	
O=C(Nc1cccc([N+](=O)[O-])c1)c1ccc(S(=O)(=O)NCC2CCCO2)cc1 (stereo not drawn) [T6010789]	1.31	5.82 µM	
c1ccc(CN2CCOCC2)c(CNc2ncnc3ccsc23)c1 [T5790476]	0.79		

Structure (SMILES)	Score Lact. [1]	EC50 [1]	Glycogen (statistical significance of glycogen degradation) [2]
CC[N+](CC)(CC(=O)Nc1c(C)cccc1C)Cc1ccccc1 [Denatonium benzoate]			** (**p<0.01)
CCC(C)NS(=O)(=O)c1ccc(Oc2ccc(C)cc2)cc1 (stereo not drawn) [T5400234]	0.33		
CC(C)S(=O)(=O)c1ccc(NS(=O)(=O)c2ccc(Cl)cc2)cc1 [T5311200]	0.56	6.02 µM	
Cc1cccc(NS(=O)(=O)c2ccc(Cl)c(Cl)c2)c1 [F3394-1364]	0.33	5.87 µM	
Cc1nc2ccc(NC(=O)c3ccc4c(c3)CC(C)N4S(C)(=O)=O)cc2[nH]1 (stereo not drawn) [T5606387]	0.38	4.61 µM	
O=S(=O)(Nc1ccc(F)cc1)c1ccc(F)c(Cl)c1 [T6947848]	0.98	5.5 µM	
CC(C)(C)NS(=O)(=O)c1cccc(C(=O)Nc2ccncc2)c1 [T5827594]	0.71		
CCCC(=O)Nc1nc(-c2ccc3c(c2)CCO3)cs1 [T5691896]	0.38		
Cc1sc2nc(CNc3nc4ccccc4c(=O)n3C)[nH]c(=O)c2c1C [T0517-2783]	0.46	3.84 µM	
N#Cc1cc(C(=O)c2cc(F)ccc2O)cn(-c2ccc(F)c(Cl)c2)c1=O [T0516-6894]	0.38		
CC(=O)N1CC(C)(C)c2cc(S(=O)(=O)Nc3ccc(F)cc3C)ccc21 [L302-0181]	0.52		
CC(=O)Nc1cccc(NC(=O)CSc2nc(C)c(C)n2C2CCCC2)c1 [T5788339]	0.75		
CCc1ccccc1NC(=O)CN(C)c1ncnc2c1oc1ccccc12 [T5712071]	0.8		
COc1ccc(NS(=O)(=O)c2cccc(NC(=O)c3cccs3)c2)cc1 [T0517-4117]	0.91		
c1nc(NCc2ccc3c(c2)OCO3)c2sccc2n1 [T5787526]	0.71		
Cc1cc(/C=C/c2ccc3cc(N(C)C)ccc3[n+]2C)c(C)n1-c1ccccc1 [Pyrvinium pamoate]			**** (****p<0.0001)
Cn1c(=O)c(N2CCC(NC(=O)Nc3cccc(Cl)c3)CC2)nc2ccccc21 [L932-0267]	0.53		
CCNc1cc(C)nc(Nc2ccc(NC(=O)Cc3ccccc3)cc2)c1 [G869-0064]	0.54	4.26 µM	
CCc1ccc(NS(=O)(=O)c2c(C)c(-c3nnc(C4CC4)o3)n(C)c2C)cc1 [M950-1515]	0.67		
COc1ccccc1NC(=O)CO/N=C(/N)c1cccc(C(F)(F)F)c1 [T5770640]	0.55		
O=C(Nc1ccc(F)c(F)c1)c1ccc(Cl)c(S(=O)(=O)N2CCCC2)c1 [T5450239]	0.67		
Cc1sc2nc(CSc3nc4ccccc4[nH]3)nc(N)c2c1C [T5719257]	0.74		

— patent US12433892B2, “Compositions and methods of treatment for neurological disorders comprising depression” (Gliapharm SA, priority 2018, dated 2025)
